# Legend:
# Type in all cases: cell-based, human
# IL6 = assay: Expression of proinflammatory cytokine IL6 in AT719-P cells; details: relative to β-actin
# Method: FIG. 12. Levels of expression of proinflammatory cytokines in ataxia telangiectasia cells after expressing peptides GSE24.2 and GSE4. AT719-P AT cells were infected with a lentiviral vector expressing GSE24.2, GSE4 or a GFP empty vector and three weeks later the RNA was extracted and after obtaining the corresponding cDNA, the levels of expression of the proinflammatory cytokines IL6 and IL8 were determined. AT736C cells were used as a control. The levels of expression of the gene β-actin were measured as control of expression. The results are expressed as the relative increase in the number of times of expression of each of the genes compared to β-actin, considering the levels of expression of AT736C cells as 1.
# As the peptide denominated GSE4 was smaller than the peptides with ability to repair telomerase activity, we studied if it had the same activity as peptide GSE24.2 for attenuating oxidative stress, expression of proinflammatory cytokines and repairing the senescence in ataxia telangiectasia cells. […] Finally, given that the increase in expression of the interleukins IL6 and IL8 are associated with a secretory phenotype linked to senescence in ataxia telangiectasia, we evaluated the ability of both peptides GSE24.2 and GSE4 to reduce senescence by evaluating senescence-associated β-galactosidase activity (SA-beta-Gal) (FIG. 13).
# AT cells (AT3784) = assay: Damage to DNA in AT cells: pCHK2 Thr68 foci after lentiviral expression of GSE24.2
# Method: FIG. 2. Determination of damage to DNA in AT cells: AT3784 AT cells were infected with a lentiviral vector expressing GSE24.2 or a GFP empty vector and were fixed 24 hours later to be processed and hybridised with an antibody against the kinase pCHK2[…]. Control C-1787 cells were used as the negative control. Next they were hybridised with a fluorescein-labelled antibody and were stained with DAPI to locate the nuclei. […] Therefore expression of GSE24.2 is able to correct damage to DNA in 28% of cells, confirming the data obtained with phosphorylated histone H2AX.
# AT3189-P AT lymphoblasts = assay: ROS levels by DHE and flow cytometry in AT lymphoblasts; details: AT3189-P cells, three weeks after infection, DHE, versus AT736C control cells
# Method: FIG. 3. Determination of ROS levels in AT cells: AT3189-P AT cells were infected with a lentiviral vector expressing GSE24.2 or a GFP empty vector and three weeks later were loaded with the DHE reagent that detects Reactive Oxygen Species (ROS) levels. AT736C cells were used as a control. Relative fluorescence of the three cell lines and the proportion of cells with maximum intensity were determined through flow cytometry using wavelengths of 518 nm absorption and 605 nm emission. The data are shown as relative percentage of cells that emit at this wavelength.
# One of the characteristics of AT cells is an increase in free radical content. This is due to the failure of function of protein ATM, which is able to maintain the redox balance in normal cells when the cells are exposed to environmental stress such as in vitro culture. In order to verify if expression of GSE24.2 has some impact on the regulation of free radical levels, we used the compound dihydroethidium (Hydroethidine), which enables quantifying the levels of free radicals in living cells. […] Three weeks after infection, the cells were loaded with the DHE reagent for 30 minutes and the proportion of cells with different free radical content was determined by flow cytometry.
# [1] = system: p38 MAP kinase (phosphorylated on Thr180/Try182) in AT719 cells; assay: Levels of phosphorylated p38 by Western blot in AT cells; details: three weeks after infection, control AT736 = 1
# Excerpt: FIG. 4. Determination of the levels of phosphorylation of p38 in AT cells: AT719-P AT cells were infected with a lentiviral vector expressing GSE24.2 or a GFP empty vector and three weeks later protein extracts were obtained. AT719-P AT cells infected with GSE24.2 were also used and the population with the maximum fluorescence was selected using a sorter (AT AT719-P GSE24.2 sorter). AT736C cells were used as a control. The proteins were resolved on polyacrylamide gels and transferred to nitrocellulose membranes. The membrane was hybridised with a polyclonal antibody against the protein p38 phosphorylated on Thr180/Try182 and non-phosphoryated protein as a loading control. The relative values between the phosphorylated and non-phosphorylated proteins obtained (using the NIH-Image program) for the control cell line were considered as 1 and the others referred to it.
# One of the characteristics of AT patient cells is a higher activation of p38 MAP kinase due to the failure of function of the ATM protein. This increase in activation of p38 triggers the process of cell death in AT cells and therefore a reduction in the number of neuronal cells. […] The signal obtained in both hybridisations was quantified with the NIH-Image program and relative values between the phosphorylated and non-phosphorylated proteins obtained for the control cell line were considered as 1.
# AT719 cells = assay: Viability (MTS) in response to bleomycin in AT cells; details: increasing concentrations of bleomycin, 72 hours, versus AT736C control
# Method: FIG. 5. Determination of the viability in response to bleomycin in AT cells: AT719-P AT cells were infected with a lentiviral vector expressing GSE24.2 or a GFP empty vector and three weeks later they were treated with different doses of bleomycin. AT736C cells were used as a control. The cells were fixed after 72 hours of treatment and viability determined with the MTS reagent. The values represent the result of the test performed in triplicate and express the viability with respect to untreated cells.
# Mutations in gene ATM sensitise cells of AT patients to treatment with ionizing radiation or radiomimetic drugs such as bleomycin. In order to verify if the protective effect induced by GSE24.2 in cells of AT patients also extends to radiomimetic agents, AT719 patient cells expressing pCMV-GFP-GSE24.2 or an empty vector expressing only GFP (GFP) were treated with increasing concentrations of bleomycin for 72 hours. After this time, cell viability was evaluated using MTS reagent. AT736C cells were used as a control.
Sequence,reduction of levels of expression of IL6 (IL6),cells in which damage to DNA is corrected (AT cells (AT3784)),fewer AT cells showing basal damage (AT cells (AT3784); after expressing GSE24.2),reduction of high levels of damage to DNA (AT cells (AT3784); after expressing GSE24.2),ROS levels (AT3189-P AT lymphoblasts),phosphorylated / non-phosphorylated p38 relative value [1],viability after bleomycin (AT719 cells)
GFINLDKPSNP [GSE4],80%,–,–,–,–,–,–
GFINLDKPSNPSSHEVVAWIRRILRVEKTGHSGTLDPKVTGCLIVCIERATRLVK (GSE24.2; listed as Homo sapiens) [55-amino-acid peptide corresponding to the protein dyskerin; known from WO2007/090911],–,28%,25%,13%,reduced in AT3189-P GSE24.2 cells to values comparable to those found in the AT736C control cells,reduced significantly to levels similar to control cells,able to increase viability of AT719 cells to levels similar to control cells
